The record followed here is ChEMBL document CHEMBL1649419, “Design and synthesis of pyrimidinone and pyrimidinedione inhibitors of dipeptidyl peptidase IV” (J Med Chem, 2011).

Series [1] in a line: Half life in monkey at 1.1 mg/kg, iv. Type of series: ADME, organism-based, Macaca mulatta. As to conditions: rhesus monkey, in vivo. Set-up: dose 1.1 mg/kg, route intravenous.
Series [2] can be described thus: Volume of distribution at steady state in monkey at 1.1 mg/kg, iv and 7.6 mg/kg, po. It is filed as ADME, organism-based, Macaca mulatta. As to conditions: rhesus monkey, in vivo, read-out: Vdss.
The nature of series [3]: Half life in rat liver microsomes by LC/MS analysis. It is filed as ADME, Microsome.
Series [4] can be described thus: AUC in monkey at 7.6 mg/kg, po. Type of series: ADME, organism-based, Macaca mulatta. Details: dose 7.6 mg/kg, route oral. As to conditions: rhesus monkey, plasma.
Series [5] is described as follows: Half life in human liver microsomes by LC/MS analysis. It is filed as ADME, Microsome. In general terms: Microsomes from liver hold many membrane-bound enzymes, among them those of drug oxidation.
Series [6] in a line: Oral bioavailability in monkey at 7.6 mg/kg. As to conditions: rhesus monkey, in vivo. Type of series: ADME, organism-based, Macaca mulatta.
The nature of series [7]: Half life in monkey at 7.6 mg/kg, po. It is filed as ADME, organism-based, Macaca mulatta. Set-up: dose 7.6 mg/kg, route oral. As to conditions: rhesus monkey, in vivo.

What is called half-life is how long it takes for the measured level to halve. One may read the AUC as concentration integrated over time. Regarding `N#Cc1ccccc1Cn1c(N2CCC[C@@H](N)C2)ncc(Br)c1=O`, the half-life in series [1] is 4.2 h; in series [3], 1.57 h; in series [5] it was greater than 3.33 h; in series [7], 5.4 h. For the same compound, the Vd in series [2] came out at 4.2 L/kg. The compound also displayed an exposure (AUC) in series [4] of 8200 ng·h/mL. Moreover, the bioavailability in series [6] came to 112%.

As for `N#Cc1ccccc1Cn1c(N2CCC[C@@H](N)C2)nccc1=O`, the half-life in series [3] was 2.18 h; in series [5], greater than 3.33 h.

`N#Cc1ccccc1Cn1c(N2CCC[C@@H](N)C2)ncc(F)c1=O`: the half-life in series [3] and in series [5] was greater than 3.33 h throughout.

`N#Cc1ccccc1Cn1c(N2CCC[C@@H](N)C2)ncc(Cl)c1=O`: the values for the half-life in series [3] and in series [5] were 3.32 h and greater than 3.33 h, respectively.

Turning to `Cc1nc(N2CCC[C@@H](N)C2)n(Cc2ccccc2C#N)c(=O)c1Br`, the half-life in series [3] is 0.383 h; in series [5], greater than 3.33 h.

Turning to `N#Cc1ccccc1Cn1c(N2CCC[C@@H](N)C2)ncc(I)c1=O`, the half-life in series [3] was 0.983 h; in series [5] it was 2.68 h.

Turning to `Cc1nc(N2CCC[C@@H](N)C2)n(Cc2ccccc2C#N)c(=O)c1C`, the half-life is 0.167 h in series [3] and greater than 3.33 h in series [5].

Turning to `CCc1cnc(N2CCC[C@@H](N)C2)n(Cc2ccccc2C#N)c1=O`, the half-life in series [3] was 0.117 h; in series [5], greater than 3.33 h.

On to `COc1cnc(N2CCC[C@@H](N)C2)n(Cc2ccccc2C#N)c1=O`, for which the half-life was 0.333 h in series [3] and greater than 3.33 h in series [5].

For the compound `N#Cc1ccccc1Cn1c(N2CCC[C@@H](N)C2)nc(-c2ccccc2)cc1=O`, the figures for the half-life in series [3] and in series [5] were 0.2 h and 1.98 h, respectively.

As to `N#Cc1ccccc1Cn1c(N2CCC[C@@H](N)C2)nc2c(c1=O)CCCC2`, the half-life in series [3] stood at 0.1 h; in series [5] it was 1.38 h.

As to `N#Cc1ccccc1Cn1c(N2CCC[C@@H](N)C2)ncc(-c2ccccc2)c1=O`, the half-life came to 0.0167 h in series [3] and 1.17 h in series [5].

With `N#Cc1ccccc1Cn1c(N2CCC[C@@H](N)C2)ncc(-c2ccoc2)c1=O`, the half-life in series [3] is 0.0667 h; in series [5] it was 0.933 h.

As to `N#Cc1ccccc1Cn1c(N2CCC[C@@H](N)C2)ncc(-c2cc[nH]c2)c1=O`, the half-life in series [3] turned out to be 1.18 h; in series [5] it was 1.02 h.

In the case of `C#Cc1cnc(N2CCC[C@@H](N)C2)n(Cc2ccccc2C#N)c1=O`, the half-life in series [3] and in series [5] was greater than 3.33 h each time.

On to `CC#Cc1cnc(N2CCC[C@@H](N)C2)n(Cc2ccccc2C#N)c1=O`, for which the half-life in series [3] and in series [5] was greater than 3.33 h each time.

`N#Cc1ccccc1Cn1c(N2CCC[C@@H](N)C2)ncc(C#CCO)c1=O`: the half-life in series [3] and in series [5] was greater than 3.33 h each time.

In the case of `C=Cc1cnc(N2CCC[C@@H](N)C2)n(Cc2ccccc2C#N)c1=O`, the figures for the half-life in series [3] and in series [5] were 0.1 h and 2.73 h, respectively.

Consider `N#Cc1ccccc1Cn1c(N2CCC[C@@H](N)C2)ncc(/C=C/c2ccccc2)c1=O`, for which the figures for the half-life in series [3] and in series [5] were 0.567 h and greater than 3.33 h, respectively.

On to `N#Cc1ccccc1Cn1c(N2CCC[C@@H](N)C2)ncc(/C=C/c2ccc(F)cc2)c1=O`, for which the half-life is greater than 3.33 h in series [3] and 3.1 h in series [5].

`N#Cc1ccccc1Cn1c(N2CCC[C@@H](N)C2)ncc(/C=C/c2cccnc2)c1=O`: the half-life in series [3] is 0.45 h; in series [5], greater than 3.33 h.
